{"source": "patent US9737558B2", "about": "“Peyer's patch activator” (priority 2012, dated 2017)", "key": {"[1]": {"test_system": "IL-6 production in mouse Peyer's patch cells", "assay": "IL-6 production induction test in Peyer's patch cell culture (ELISA)", "type": "cell-based, C3H/HeJ mouse", "conditions": "Example 2, FIG. 4; sample untreated, versus control", "procedure": "To a 25 mM acetate buffer (pH 4.5, 1 mg/mL) solution of the α-glucan fraction (1.5 mg) or the heteroglycan fraction (1.5 mg) were added exo-α-L-arabinofuranosidase (20 μL), exo-β-D-(1→3)-galactanase (20 μL), and endo-β-D-(1→4)-galactanase (5 μL), followed by enzyme reaction under conditions of 37° C. for 2 days. The obtained digest was heat-treated for 30 seconds in a boiling water bath to deactivate the enzyme. To a half of this enzyme reaction liquid (shown as “1,3/1,4-galactanase” in FIG. 4) was further added dextranase (0.25 units), followed by incubation for 2 days at 37° C., and subsequently, the enzyme was deactivated under the same conditions as the above to obtain an enzyme reaction liquid (shown as “dextranase” in FIG. 4). These reaction liquids were preserved at −20° C. until use. Preparation and culture of mouse Peyer's patch cells were performed in the same manner as in Test Example 1. An anti-mouse IL-6 primary antibody diluted to 1 μg/mL with a 50 mM carbonate-bicarbonate buffer (pH 9.6) (100 μL/well) was dispensed into an ELISA plate (Immuno-Maxisorp, Nunc) and incubated at 4° C. overnight. […] The developed yellow color was measured using a microplate reader (Multiskan JX, Thermo Electron Corp.) (measurement wavelength; 405 nm, blank wavelength; 492 nm)."}, "[2]": {"test_system": "Plasmodium yoelii NS (chloroquine-resistant strain)", "assay": "Oral administration test of polysaccharide fraction in combination with antimalarial agent in rodent malaria parasite (chloroquine-resistant strain) infection model", "type": "in vivo, Plasmodium yoelii NS in ICR mice", "conditions": "2×10^4 infected erythrocytes; AN 3 mg/kg/day oral four times; SCE-4 600 mg/kg/day oral from 7 days before infection; versus control group (Dunnett's test)", "procedure": "A procedure was performed in the same manner as in Example 4, except that the number of P. yoelii NS-infected erythrocytes intravenously injected to the tail vein was changed from 2×10^6 cells to 2×10^4 cells.\nSCE-4 and AN were orally administered to ICR mice each day in a dose of 500 μL/mouse using a feeding needle. A dosage of SCE-4 was 600 mg/kg/day, and AN was dissolved in a 10% dimethylsulfoxide (DMSO) aqueous solution containing 0.5% Tween 80 and administered in a dosage of 3 mg/kg/day. The administration of SCE-4 was started 7 days before parasite infection and continued even after the plasmodium infection. The administration of AN was started 2 hours after the parasite infection and continued until Day 3 after the plasmodium infection (four times in total). In addition, SCE-4 was administered 3 hours or more after the administration of AN.\nTo a control group, water and a 10% DMSO aqueous solution containing 0.5% Tween 80 were orally administered, and to AN3 groups, water and a 10% DMSO aqueous solution of AN containing 0.5% Tween 80 were orally administered, and to SCE-4+AN3 groups, an SCE-4 aqueous solution and a 10% DMSO aqueous solution of AN containing 0.5% Tween 80 were orally administered.\nCalculation was performed in the same manner as in Example 3."}}, "data": [{"compound": "dextran", "values": [{"measurement": "amount of IL-6 production", "setting": "[1]", "value": "no change in the amount of IL-6 production was observed"}]}, {"compound": "C[C@H]1[C@H](OC(=O)CCC(=O)O)O[C@@H]2O[C@@]3(C)CC[C@H]4[C@H](C)CC[C@@H]1[C@@]24OO3", "note": "[AN, artesunate]", "values": [{"measurement": "infection rate of erythrocytes (Parasitemia), Day 4 and Day 5", "setting": "[2]", "value": "the infection rate significantly decreased on Day 4 and Day 5 as compared with the control group"}]}]}
